In US9073924B2, “Azaindazoles” (GlaxoSmithKline LLC, priority 2011, dated 2015):

Biological target: T1, EZH2 within the PRC2 complex (Homo sapiens, UniProt Q15910)
T1 construct: FLAG; made in house; host or cells: Sf9 cells
Assay: EZH2 methyltransferase scintillation proximity assay (SPA), PRC2 complex
Format: biochemical
Details: inhibition of methyltransferase activity, 3H-SAM, HeLa mononucleosome substrate, foregoing or an analogous assay
Experimental: Compounds contained herein were evaluated for their ability to inhibit the methyltransferase activity of EZH2 within the PRC2 complex. Human PRC2 complex was prepared by co-expressing each of the 5 member proteins (FLAG-EZH2, EED, SUZ12, RbAp48, AEBP2) in Sf9 cells followed by co-purification. Enzyme activity was measured in a scintillation proximity assay (SPA) where a tritiated methyl group is transferred from 3H-SAM to a lysine residue on Histone H3 of a mononucleosome, purified from HeLa cells. Mononucleosomes were captured on SPA beads and the resulting signal is read on a ViewLux plate reader.
Part A. Compound Preparation
Prepare 10 mM stock of compounds from solid in 100% DMSO. • 2. Set up an 11-point serial dilution (1:3 dilution, top concentration 10 mM) in 100% DMSO for each test compound in a 384 well plate leaving columns 6 and 18 for DMSO controls. • 3. Dispense 100 nL of compound from the dilution plate into reaction plates (Grenier Bio-One, 384-well, Cat#784075). Part B. Reagent Preparation Prepare the following solutions: • 1. […] Read plates • 1. Read the assay plates on the Viewlux Plate Reader utilizing the 613 nm emission filter with a 300 s read time. […]
Percent inhibition was calculated relative to the DMSO control for each compound concentration and the resulting values were fit using standard IC50 fitting parameters within the ABASE data fitting software package.

T1 sequence (Q15910 whole entry): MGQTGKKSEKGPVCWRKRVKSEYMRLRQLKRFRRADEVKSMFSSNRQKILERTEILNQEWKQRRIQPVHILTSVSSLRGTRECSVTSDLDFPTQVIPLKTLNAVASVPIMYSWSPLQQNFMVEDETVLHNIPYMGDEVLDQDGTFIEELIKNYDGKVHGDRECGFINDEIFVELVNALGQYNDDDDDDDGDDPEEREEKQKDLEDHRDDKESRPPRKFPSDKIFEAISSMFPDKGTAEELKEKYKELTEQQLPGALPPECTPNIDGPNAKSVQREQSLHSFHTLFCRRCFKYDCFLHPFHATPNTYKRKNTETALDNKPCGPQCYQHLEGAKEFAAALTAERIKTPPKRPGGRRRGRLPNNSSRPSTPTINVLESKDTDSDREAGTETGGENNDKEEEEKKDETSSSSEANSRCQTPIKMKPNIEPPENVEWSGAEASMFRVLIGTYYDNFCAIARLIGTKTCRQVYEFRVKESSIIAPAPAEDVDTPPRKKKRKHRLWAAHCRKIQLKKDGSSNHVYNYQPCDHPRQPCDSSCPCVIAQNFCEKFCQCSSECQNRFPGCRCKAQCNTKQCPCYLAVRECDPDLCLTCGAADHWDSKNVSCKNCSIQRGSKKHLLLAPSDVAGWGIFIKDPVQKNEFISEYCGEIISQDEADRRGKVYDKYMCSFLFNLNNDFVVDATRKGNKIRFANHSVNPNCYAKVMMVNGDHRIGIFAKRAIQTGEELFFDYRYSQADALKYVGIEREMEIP
T1 sequence (O75530 whole entry partner): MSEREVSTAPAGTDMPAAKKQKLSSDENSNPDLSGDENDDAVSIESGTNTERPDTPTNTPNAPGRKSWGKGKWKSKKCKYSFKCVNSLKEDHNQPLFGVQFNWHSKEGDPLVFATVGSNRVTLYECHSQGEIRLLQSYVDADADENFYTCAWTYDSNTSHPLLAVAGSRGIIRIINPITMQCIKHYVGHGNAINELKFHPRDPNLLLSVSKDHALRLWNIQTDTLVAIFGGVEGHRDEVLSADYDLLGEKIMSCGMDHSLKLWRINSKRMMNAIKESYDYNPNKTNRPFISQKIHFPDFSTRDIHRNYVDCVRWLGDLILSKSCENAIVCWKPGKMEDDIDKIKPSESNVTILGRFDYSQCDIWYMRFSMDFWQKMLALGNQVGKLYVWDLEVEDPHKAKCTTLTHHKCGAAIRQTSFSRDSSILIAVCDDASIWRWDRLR
T1 sequence (Q15022 whole entry partner): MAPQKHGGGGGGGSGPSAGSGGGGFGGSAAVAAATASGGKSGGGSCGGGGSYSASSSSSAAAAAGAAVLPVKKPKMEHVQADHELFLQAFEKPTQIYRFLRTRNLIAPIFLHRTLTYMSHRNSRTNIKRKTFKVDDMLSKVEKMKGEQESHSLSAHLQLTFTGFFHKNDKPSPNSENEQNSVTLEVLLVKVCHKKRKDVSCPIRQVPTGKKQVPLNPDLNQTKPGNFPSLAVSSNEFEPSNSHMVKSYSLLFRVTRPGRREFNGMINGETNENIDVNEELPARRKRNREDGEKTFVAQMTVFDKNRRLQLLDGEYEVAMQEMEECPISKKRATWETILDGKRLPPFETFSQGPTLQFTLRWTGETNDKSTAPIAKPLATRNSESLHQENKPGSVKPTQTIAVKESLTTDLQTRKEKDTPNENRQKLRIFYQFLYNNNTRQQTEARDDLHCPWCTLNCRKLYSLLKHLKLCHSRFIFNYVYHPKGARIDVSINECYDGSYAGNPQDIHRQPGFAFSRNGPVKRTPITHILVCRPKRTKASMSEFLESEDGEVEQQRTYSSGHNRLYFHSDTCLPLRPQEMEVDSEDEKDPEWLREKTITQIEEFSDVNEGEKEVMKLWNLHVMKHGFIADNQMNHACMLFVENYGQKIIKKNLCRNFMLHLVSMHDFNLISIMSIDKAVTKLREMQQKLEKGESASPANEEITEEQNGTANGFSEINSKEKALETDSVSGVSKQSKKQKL
T1 sequence (Q09028 whole entry partner): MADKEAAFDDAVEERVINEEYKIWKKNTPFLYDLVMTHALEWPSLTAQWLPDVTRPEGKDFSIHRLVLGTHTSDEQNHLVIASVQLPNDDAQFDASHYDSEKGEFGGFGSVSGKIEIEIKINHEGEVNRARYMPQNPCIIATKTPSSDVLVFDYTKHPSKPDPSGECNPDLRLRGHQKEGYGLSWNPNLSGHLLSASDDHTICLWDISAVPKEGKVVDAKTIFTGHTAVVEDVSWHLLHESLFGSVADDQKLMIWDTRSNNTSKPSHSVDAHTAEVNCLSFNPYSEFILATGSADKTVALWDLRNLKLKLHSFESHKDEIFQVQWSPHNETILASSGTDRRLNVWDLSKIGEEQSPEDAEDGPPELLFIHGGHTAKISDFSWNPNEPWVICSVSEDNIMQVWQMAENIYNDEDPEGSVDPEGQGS
T1 sequence (Q6ZN18 whole entry partner): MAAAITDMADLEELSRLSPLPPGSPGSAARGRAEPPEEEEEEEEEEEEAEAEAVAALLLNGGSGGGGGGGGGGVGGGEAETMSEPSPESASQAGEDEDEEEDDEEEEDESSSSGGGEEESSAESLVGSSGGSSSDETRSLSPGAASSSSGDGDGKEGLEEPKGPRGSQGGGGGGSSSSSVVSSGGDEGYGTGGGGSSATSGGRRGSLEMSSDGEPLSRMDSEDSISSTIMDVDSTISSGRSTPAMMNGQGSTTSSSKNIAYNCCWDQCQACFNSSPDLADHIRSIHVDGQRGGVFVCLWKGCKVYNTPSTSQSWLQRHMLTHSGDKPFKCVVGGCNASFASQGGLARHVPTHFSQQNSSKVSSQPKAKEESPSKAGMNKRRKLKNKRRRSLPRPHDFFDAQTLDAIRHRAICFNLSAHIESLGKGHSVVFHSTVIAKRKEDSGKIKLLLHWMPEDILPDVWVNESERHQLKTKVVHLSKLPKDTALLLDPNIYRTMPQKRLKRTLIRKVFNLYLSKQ

Substance | IC50 [nM]
6-{[4-(Aminocarbonyl)phenyl]amino}-N-[(4,6-dimethyl-2-oxo-1,2-dihydro-3-pyridinyl)methyl]-1-(1-methylethyl)-1H-pyrazolo[3,4-b]pyridine-4-carboxamide [Ex 86] | 142
N-[(4,6-Dimethyl-2-oxo-1,2-dihydro-3-pyridinyl)methyl]-1-(1-methylethyl)-6-(2-phenylethyl)-1H-pyrazolo[3,4-b]pyridine-4-carboxamide [Ex 32] | 856
